± gives the expanded uncertainty stated by the source.
Test: xn = mol fraction of the nth substance listed
Conditions: for mass density: Liquid; for surface tension liquid-gas: Pendant drop shape

CC(C)=O [acetone] + Cc1ccccc1
Conditions	mass density [kg/m3]	surface tension liquid-gas [mN/m]
283.15 K, x2 = 0	803.2 ± 1.7	–
283.15 K, x2 = 0.1	815.1 ± 1.7	–
283.15 K, x2 = 0.2002	823.5 ± 1.6	–
283.15 K, x2 = 0.3002	832.2 ± 1.6	–
283.15 K, x2 = 0.3997	841.2 ± 1.5	–
283.15 K, x2 = 0.4973	847.6 ± 1.5	–
283.15 K, x2 = 0.6011	854.7 ± 1.4	–
283.15 K, x2 = 0.7004	860.8 ± 1.4	–
283.15 K, x2 = 0.7998	866.4 ± 1.3	–
283.15 K, x2 = 0.8982	871.5 ± 1.3	–
287.81 K, x2 = 0	–	23.94 ± 0.27
287.81 K, x2 = 0.1	–	24.56 ± 0.27
287.81 K, x2 = 0.2002	–	25.24 ± 0.28
287.81 K, x2 = 0.3002	–	25.89 ± 0.29
287.81 K, x2 = 0.3997	–	26.46 ± 0.29
287.81 K, x2 = 0.4973	–	27.1 ± 0.3
287.81 K, x2 = 0.6011	–	27.68 ± 0.3
287.81 K, x2 = 0.7004	–	28.24 ± 0.3
287.81 K, x2 = 0.7998	–	28.48 ± 0.31
287.81 K, x2 = 0.8982	–	28.73 ± 0.31
288.15 K, x2 = 0	798.2 ± 1.8	–
288.15 K, x2 = 0.1	809.8 ± 1.7	–
288.15 K, x2 = 0.2002	818.2 ± 1.6	–
288.15 K, x2 = 0.3002	826.8 ± 1.6	–
288.15 K, x2 = 0.3997	836.1 ± 1.5	–
288.15 K, x2 = 0.4973	842.6 ± 1.5	–
288.15 K, x2 = 0.6011	849.9 ± 1.4	–
288.15 K, x2 = 0.7004	856 ± 1.4	–
288.15 K, x2 = 0.7998	861.7 ± 1.4	–
288.15 K, x2 = 0.8982	866.9 ± 1.3	–
293.15 K, x2 = 0	792.6 ± 1.8	–
293.15 K, x2 = 0.1	804.2 ± 1.7	–
293.15 K, x2 = 0.2002	812.5 ± 1.7	–
293.15 K, x2 = 0.3002	821.4 ± 1.6	–
293.15 K, x2 = 0.3997	830.7 ± 1.6	–
293.15 K, x2 = 0.4973	837.3 ± 1.5	–
293.15 K, x2 = 0.6011	844.6 ± 1.5	–
293.15 K, x2 = 0.7004	850.9 ± 1.4	–
293.15 K, x2 = 0.7998	856.6 ± 1.4	–
293.15 K, x2 = 0.8982	861.9 ± 1.4	–
297.82 K, x2 = 0	–	22.78 ± 0.26
297.82 K, x2 = 0.1	–	23.28 ± 0.26
297.82 K, x2 = 0.2002	–	23.78 ± 0.27
297.82 K, x2 = 0.3002	–	24.36 ± 0.27
297.82 K, x2 = 0.3997	–	24.93 ± 0.28
297.82 K, x2 = 0.4973	–	25.55 ± 0.28
297.82 K, x2 = 0.6011	–	26 ± 0.29
297.82 K, x2 = 0.7004	–	26.5 ± 0.29
297.82 K, x2 = 0.7998	–	27.1 ± 0.3
297.82 K, x2 = 0.8982	–	27.33 ± 0.3
298.15 K, x2 = 0	787 ± 1.8	–
298.15 K, x2 = 0.1	798.8 ± 1.8	–
298.15 K, x2 = 0.2002	807.1 ± 1.7	–
298.15 K, x2 = 0.3002	816.1 ± 1.7	–
298.15 K, x2 = 0.3997	825.6 ± 1.6	–
298.15 K, x2 = 0.4973	832.3 ± 1.6	–
298.15 K, x2 = 0.6011	839.7 ± 1.5	–
298.15 K, x2 = 0.7004	846.1 ± 1.5	–
298.15 K, x2 = 0.7998	851.9 ± 1.4	–
298.15 K, x2 = 0.8982	857.3 ± 1.4	–
303.15 K, x2 = 0	781.2 ± 1.9	–
303.15 K, x2 = 0.1	793.3 ± 1.8	–
303.15 K, x2 = 0.2002	801.6 ± 1.7	–
303.15 K, x2 = 0.3002	810.8 ± 1.7	–
303.15 K, x2 = 0.3997	820.4 ± 1.6	–
303.15 K, x2 = 0.4973	827.2 ± 1.6	–
303.15 K, x2 = 0.6011	834.7 ± 1.5	–
303.15 K, x2 = 0.7004	841.3 ± 1.5	–
303.15 K, x2 = 0.7998	847.2 ± 1.5	–
303.15 K, x2 = 0.8982	852.6 ± 1.4	–
307.86 K, x2 = 0	–	21.59 ± 0.25
307.86 K, x2 = 0.1	–	22.08 ± 0.25
307.86 K, x2 = 0.2002	–	22.58 ± 0.26
307.86 K, x2 = 0.3002	–	23.1 ± 0.26
307.86 K, x2 = 0.3997	–	23.77 ± 0.27
307.86 K, x2 = 0.4973	–	24.4 ± 0.27
307.86 K, x2 = 0.6011	–	25 ± 0.28
307.86 K, x2 = 0.7004	–	25.4 ± 0.28
307.86 K, x2 = 0.7998	–	26 ± 0.29
307.86 K, x2 = 0.8982	–	26.24 ± 0.29
308.15 K, x2 = 0	775.4 ± 1.9	–
308.15 K, x2 = 0.1	787.7 ± 1.8	–
308.15 K, x2 = 0.3002	805.5 ± 1.7	–
308.15 K, x2 = 0.3997	815.1 ± 1.7	–
308.15 K, x2 = 0.4973	822.1 ± 1.6	–
308.15 K, x2 = 0.6011	829.7 ± 1.6	–
308.15 K, x2 = 0.7004	836.4 ± 1.5	–
308.15 K, x2 = 0.7998	842.4 ± 1.5	–
308.15 K, x2 = 0.8982	847.9 ± 1.5	–
313.15 K, x2 = 0	769.6 ± 1.9	–
313.15 K, x2 = 0.1	782 ± 1.9	–
313.15 K, x2 = 0.2002	790.4 ± 1.8	–
313.15 K, x2 = 0.3002	800.1 ± 1.7	–
313.15 K, x2 = 0.3997	809.7 ± 1.7	–
313.15 K, x2 = 0.4973	816.9 ± 1.6	–
313.15 K, x2 = 0.6011	824.7 ± 1.6	–
313.15 K, x2 = 0.7004	831.4 ± 1.6	–
313.15 K, x2 = 0.7998	837.6 ± 1.5	–
313.15 K, x2 = 0.8982	843.2 ± 1.5	–
317.86 K, x2 = 0	–	20.33 ± 0.24
317.86 K, x2 = 0.1	–	20.9 ± 0.25
317.86 K, x2 = 0.2002	–	21.44 ± 0.25
317.86 K, x2 = 0.3002	–	22.18 ± 0.26
317.86 K, x2 = 0.3997	–	22.67 ± 0.26
317.86 K, x2 = 0.4973	–	23.25 ± 0.26
317.86 K, x2 = 0.6011	–	24.11 ± 0.27
317.86 K, x2 = 0.7004	–	24.4 ± 0.27
317.86 K, x2 = 0.7998	–	24.99 ± 0.28
317.86 K, x2 = 0.8982	–	25.2 ± 0.28
318.15 K, x2 = 0	762.5 ± 2	–
318.15 K, x2 = 0.1	776.2 ± 1.9	–
318.15 K, x2 = 0.2002	784.6 ± 1.8	–
318.15 K, x2 = 0.3002	794.6 ± 1.8	–
318.15 K, x2 = 0.3997	804.2 ± 1.7	–
318.15 K, x2 = 0.4973	811.6 ± 1.7	–
318.15 K, x2 = 0.6011	819.5 ± 1.6	–
318.15 K, x2 = 0.7004	826.4 ± 1.6	–
318.15 K, x2 = 0.7998	832.7 ± 1.5	–
318.15 K, x2 = 0.8982	838.4 ± 1.5	–
323.15 K, x2 = 0	756.2 ± 2	–
323.15 K, x2 = 0.1	770.2 ± 1.9	–
323.15 K, x2 = 0.2002	778.9 ± 1.9	–
323.15 K, x2 = 0.3002	789.1 ± 1.8	–
323.15 K, x2 = 0.3997	798.6 ± 1.8	–
323.15 K, x2 = 0.4973	806.3 ± 1.7	–
323.15 K, x2 = 0.6011	814.4 ± 1.7	–
323.15 K, x2 = 0.7998	827.7 ± 1.6	–
323.15 K, x2 = 0.8982	833.6 ± 1.5	–
327.88 K, x2 = 0	–	19.01 ± 0.23
327.88 K, x2 = 0.1	–	19.74 ± 0.24
327.88 K, x2 = 0.2002	–	20.32 ± 0.24
327.88 K, x2 = 0.3002	–	21.07 ± 0.25
327.88 K, x2 = 0.3997	–	21.8 ± 0.25
327.88 K, x2 = 0.4973	–	22.2 ± 0.26
327.88 K, x2 = 0.6011	–	22.97 ± 0.26
327.88 K, x2 = 0.7004	–	23.56 ± 0.27
327.88 K, x2 = 0.7998	–	23.83 ± 0.27
327.88 K, x2 = 0.8982	–	24.14 ± 0.27
328.15 K, x2 = 0	749.3 ± 2.1	–
328.15 K, x2 = 0.1	764 ± 2	–
328.15 K, x2 = 0.2002	773.2 ± 1.9	–
328.15 K, x2 = 0.3002	783.5 ± 1.9	–
328.15 K, x2 = 0.3997	792.9 ± 1.8	–
328.15 K, x2 = 0.4973	801 ± 1.7	–
328.15 K, x2 = 0.6011	809.2 ± 1.7	–
328.15 K, x2 = 0.7004	816.3 ± 1.6	–
328.15 K, x2 = 0.7998	822.8 ± 1.6	–
328.15 K, x2 = 0.8982	828.7 ± 1.6	–
333.15 K, x2 = 0	742.3 ± 2.1	–
333.15 K, x2 = 0.1	757.3 ± 2	–
333.15 K, x2 = 0.2002	767.5 ± 2	–
333.15 K, x2 = 0.3002	778.1 ± 1.9	–
333.15 K, x2 = 0.3997	787.3 ± 1.8	–
333.15 K, x2 = 0.4973	795.6 ± 1.8	–
333.15 K, x2 = 0.6011	803.9 ± 1.7	–
333.15 K, x2 = 0.7004	811.2 ± 1.7	–
333.15 K, x2 = 0.7998	817.8 ± 1.6	–
333.15 K, x2 = 0.8982	823.8 ± 1.6	–
